Drawing on US8815852B2, “Carbamoyloxy arylalkan arylpiperazine analgesics” (SK Biopharmaceuticals Co., Ltd., priority 2007, dated 2014), this text covers inhibition in vivo and ED50 for 15 compounds.

One test deals with male ICR mouse. The test is described as follows: Acetic acid-induced writhing test in mouse. To be noted: Mus musculus, po, 1 h, at 10 po (method: 10 mg/kg oral, 1 hour before acetic acid); read-out: AA Writhing: Suppression ratio of Pain response. It is filed as in vivo. Here is the method:
2. Acetic Acid-Induced Writhing Test in Mouse
An acetic acid-induced writhing test is one of models for measuring an analgesic effect of drugs. A test material dissolved in a suitable vehicle was orally administered to a male ICR mouse weighing 30 to 35 g at an amount of 10 mg/kg. After 1 hour of the oral administration, […] of an aqueous 0.8% acetic acid solution was intraperitoneally injected into the male ICR mouse to induce the abdominal pain of the male ICR mouse. Right after the administration of acetic acid, the male ICR mouse was put into an empty cage, and the number of writhing behaviors of the mice was counted for 10 minutes. The term “writhing represents a reflex action in which the mouse overtly extends its abdomen by stretching its hind legs due to the abdominal pain. The analgesic effect of the test material is represented by the ‘suppression ratio of pain response’ {[(Writhing number of Vehicle-administered group−Writhing number of Test material-administered group)/(Writhing number of Vehicle-administered group)]×100%} or 50% of Effective amount (ED50 (median effective dose); an amount of test material that is required to suppress 50% of pain behaviors) of Test material. The ED50 (median effective dose) was determined by calculating the suppression ratio of pain response in at least three doses of test materials and subjecting to the linear regression.
`COc1ccc(N2CCN(CCC(OC(N)=O)c3ccc(Cl)c(C(F)(F)F)c3)CC2)cc1` (stereo not shown) [Example 63, Carbamic acid 1-(4-chloro-3-trifluoromethyl-phenyl)-3-[4-(4-methoxy-phenyl)-piperazin-1-yl]-propyl ester]: the inhibition in vivo at 10 mg/kg stood at 46%.

`COc1ccc(N2CC(C)N(CC[C@@H](OC(N)=O)c3ccccc3)C(C)C2)cc1` (stereo partly drawn) [Example 101, Carbamic acid (R)-3-[4-(4-methoxy-phenyl)-2,6-dimethyl-piperazin-1-yl]-1-phenyl-propyl ester]: the inhibition in vivo at 10 mg/kg was 48%.

For `COc1ccc(N2CCN(CCC(OC(N)=O)c3cccc([N+](=O)[O-])c3)CC2)cc1` (stereo not shown) [Example 65, Carbamic acid 3-[4-(4-methoxy-phenyl)-piperazin-1-yl]-1-(3-nitro-phenyl)-propyl ester], the inhibition in vivo at 10 mg/kg came out at 39%.

As to `COc1ccc(N2CCN(CCC(OC(N)=O)c3ccc4c(c3)OCO4)CC2)cc1` (stereo not shown) [Example 67], the inhibition in vivo at 10 mg/kg amounted to 57%.

Regarding `COc1ccc(Cl)cc1N1CCN(CCC(OC(N)=O)c2ccc(F)cc2)CC1` (stereo not shown) [Example 75, Carbamic acid 3-[4-(5-chloro-2-methoxy-phenyl)-piperazin-1-yl]-1-(4-fluoro-phenyl)-propyl ester], the inhibition in vivo at 10 mg/kg amounted to 14%.

Turning to `COc1ccc(N2CCN(CCC3OC(=O)Nc4ccccc43)CC2)cc1` (stereo not shown) [Example 107, 4-{2-[4-(4-methoxy-phenyl)-piperazin-1-yl]-ethyl}-1,4-dihydro-benzo[d][1,3]oxazin-2-one], the inhibition in vivo at 10 mg/kg was 35%.

`CC(CC(OC(N)=O)c1ccccc1)N1CCN(c2ccc([N+](=O)[O-])cc2)CC1` (stereo not shown) [Example 110, Carbamic acid 3-[4-(4-nitro-phenyl)-piperazin-1-yl]-1-phenyl-butyl ester]: the inhibition in vivo at 10 mg/kg amounted to 17%.

Consider `COc1ccc(N2CCN(CCC(OC(N)=O)c3ccccc3F)CC2)cc1` (stereo not shown) [Example 46, Carbamic acid 1-(2-fluoro-phenyl)-3-[4-(4-methoxy-phenyl)-piperazin-1-yl]-propyl ester], for which the inhibition in vivo at 10 mg/kg is 42%.

As to `NC(=O)OC(CCN1CCN(c2ccc3c(c2)OCO3)CC1)c1ccccc1` (stereo not shown) [Example 30, Carbamic acid 3-(4-benzo[1,3]dioxol-5-yl-piperazin-1-yl)-1-phenyl-propyl ester], the inhibition in vivo at 10 mg/kg is 93%.

`CC(CC(OC(N)=O)c1ccccc1)N1CCN(c2ccc(F)cc2F)CC1` (stereo not shown) [Example 116, Carbamic acid 3-[4-(2,4-difluoro-phenyl)-piperazin-1-yl]-1-phenyl-butyl ester]: the inhibition in vivo at 10 mg/kg stood at 87%.

On to `COc1ccc(N2CCN(CCC(OC(N)=O)c3ccc(Cl)cc3)CC2)cc1` (stereo not shown) [Example 71, Carbamic acid 1-(4-chloro-phenyl)-3-[4-(4-methoxy-phenyl)-piperazin-1-yl]-propyl ester], for which the inhibition in vivo at 10 mg/kg amounted to 61%.

With `COc1ccc(N2CCN(CCC(OC(N)=O)c3ccc(F)c(F)c3)CC2)cc1` (stereo not shown) [Example 52, Carbamic acid 1-(3,4-difluoro-phenyl)-3-[4-(4-methoxy-phenyl)-piperazin-1-yl]-propyl ester], the inhibition in vivo at 10 mg/kg was 61%.

The same test, now with this note: Mus musculus; ip; unit not given (method doses in mg/kg); read-out: AA Writhing: ED50.
With `CC(=O)Oc1ccc(N2CCN(CCC(OC(N)=O)c3ccc(F)cc3)CC2)cc1` (stereo not shown) [Example 92, Acetic acid 4-{4-[3-carbamoyloxy-3-(4-fluoro-phenyl)-propyl]-piperazin-1-yl}-phenyl ester], the ED50 was found to be 0.22 mg/kg.

Still in this test, the particulars now being: Mus musculus; po; unit not given (method doses in mg/kg); read-out: AA Writhing: ED50.
Take `CC(=O)Oc1ccc(N2CCN(CCC(OC(N)=O)c3ccc(F)cc3)CC2)cc1` (stereo not shown) [Example 92, Acetic acid 4-{4-[3-carbamoyloxy-3-(4-fluoro-phenyl)-propyl]-piperazin-1-yl}-phenyl ester]: the ED50 is 5.66 mg/kg.

For `NC(=O)O[C@H](CCN1CCN(c2ccc(O)cc2)CC1)c1ccccc1` [Example 105, (R)-carbamic acid 3-[4-(4-hydroxy-phenyl)-piperazin-1-yl]-1-phenyl-propyl ester], the ED50 stood at 6.49 mg/kg.

Consider `NC(=O)OC(CCN1CCN(c2ccc(O)cc2)CC1)c1ccc(F)cc1` (stereo not shown) [Example 88, Carbamic acid 1-(4-fluoro-phenyl)-3-[4-(4-hydroxy-phenyl)-piperazin-1-yl]-propyl ester], for which the ED50 stood at 7.24 mg/kg.
